Reference: patent US8546338B2, “Self-assembling hydrogels based on dicephalic peptide amphiphiles” (Johnson & Johnson Consumer Companies, Inc., priority 2010, dated 2013)
Where a SMILES comes first, the peptide text is derived from it. Where no end group is shown, it is not given here. The star is where a group is joined. Palmitoyl = CCCCCCCCCCCCCCCC(=O)*

What was measured:
Assay type in all cases: physicochemical
[1] = Gelation experiments: inversion test for self-supporting hydrogels; conditions: for Gelation (self-supporting gel on inversion), Calcium added: DMEM plus 10 μl of 100 mg/cc calcium chloride solution; for Concentration at which gel forms, Calcium added: DMEM with calcium chloride added; for Gelation (self-supporting gel on inversion), DMEM: DPA solution in water mixed 1:1 with DMEM; for Gelation (self-supporting gel on inversion), DMEM / Concentration at which gel forms, DMEM: no calcium added; for Gelation (self-supporting gel on inversion), PBS / Gelation (self-supporting gel on inversion), Water: final concentrations 1, 2 and 4 weight percent tested; for Concentration at which gel forms, DMEM: mixed with DMEM; for Gelation under all conditions tested: 2-4 wt %, water, DMEM and DMEM plus calcium; for Gelation (self-supporting gel on inversion), PBS / Gelation under all conditions tested / Concentration at which gel forms, PBS: PBS
Experimental: Inversion tests were performed to determine qualitatively under which conditions the various DPAs formed self-supporting hydrogels. The various types of DPAs were tested by dissolving them in ultrapure water (>18 MΩ resistivity) at double the desired final concentration followed by mixing in a 1:1 ratio with different liquid mediums. Gelation was deemed to have occurred if the gel supported its own weight upon inverting the vial (FIG. 3A and FIG. 3B). Gelation was tested at final concentrations of 1, 2 and 4 weight percent. We tested phosphate buffered saline (PBS), and Dulbecco's modified eagle media (DMEM) as liquid medium. Typical scale is 100 μl each of DPA solution in water and mixing medium but other scales have been tested. Finally, if no spontaneous gelation occurs, 10 μl of 100 mg/cc calcium chloride solution was added to induce gelation.

[2] = Oscillating rheology, strain sweep; conditions: 2 wt % gels in DMEM
Experimental: (§1) Oscillating rheology by the parallel plates method (radius=25 mm) was performed on 400 μl gels to assess the mechanical strengths of gels. Time sweeps were performed to evaluate kinetics of formation at a constant strain rate of 1% and frequency of 1 rad/s. Strain sweeps were performed ranging from 1-100% strain in increments of 2% at a constant frequency of 1 rad/s. Cross-over of G′ and G″ was used to determine the gel point and point of breakdown. Time sweeps were initiated immediately after mixing the solutions that lead to DPA hydrogel formation. In the strain sweeps, the gels were allowed to form on the plate for 30 minutes before the measurement is initiated.
Strains sweeps were performed on 2 wt % Gly-Phe-Gly-Phe-Gly-Phe-Gly-Gln-Gln-Ser (SEQ ID NO: 8), Gly-Phe-Gly-Phe-Gly-Phe-Gly-Gln-Gly-Ser (SEQ ID NO: 12) and Gly-Phe-Gly-Phe-Gly-Phe-Gly-Asn-Asn-Ser (SEQ ID NO: 11) gels in DMEM (FIG. 8). Gels were allowed to form for 30 minutes before the experiment was initiated.

[3] = Oscillating rheology, time sweep (kinetics of formation); conditions: for Gel point after mixing: 2 wt % gels in DMEM
Experimental: as §1
The gelation process was initiated on the plate at 25° C. by the addition of 10 μl of 100 mg/ml calcium chloride solution to a solution of the DPA in DMEM.

[4] = listed as linear peptide amphiphile analogue

| Compound | Gelation (self-supporting gel on inversion), Calcium added [1] | Gelation (self-supporting gel on inversion), DMEM [1] | Gelation (self-supporting gel on inversion), PBS [1] | Gelation (self-supporting gel on inversion), Water ([1]; in water) | Concentration at which gel forms, DMEM [1] [%] | other results |
| --- | --- | --- | --- | --- | --- | --- |
| CCCCCCCCCCCCCCCC(=O)NC(C(=O)NCC(=O)N[C@@H](Cc1ccccc1)C(=O)NCC(=O)N[C@@H](Cc1ccccc1)C(=O)NCC(=O)N[C@@H](Cc1ccccc1)C(=O)NCC(=O)NCC(=O)N[C@@H](CC(N)=O)C(=O)N[C@@H](CO)C(=O)O)C(=O)NCC(=O)N[C@@H](Cc1ccccc1)C(=O)NCC(=O)N[C@@H](Cc1ccccc1)C(=O)NCC(=O)N[C@@H](Cc1ccccc1)C(=O)NCC(=O)NCC(=O)N[C@@H](CC(N)=O)C(=O)N[C@@H](CO)C(=O)O [Gly-Phe-Gly-Phe-Gly-Phe-Gly-Gly-Asn-Ser] |  | Yes, | No | No | 2 |  |
| CCCCCCCCCCCCCCCC(=O)NC(C(=O)NCC(=O)N[C@@H](Cc1ccccc1)C(=O)NCC(=O)N[C@@H](Cc1ccccc1)C(=O)NCC(=O)N[C@@H](Cc1ccccc1)C(=O)NCC(=O)N[C@@H](CCC(N)=O)C(=O)NCC(=O)N[C@@H](CO)C(=O)O)C(=O)NCC(=O)N[C@@H](Cc1ccccc1)C(=O)NCC(=O)N[C@@H](Cc1ccccc1)C(=O)NCC(=O)N[C@@H](Cc1ccccc1)C(=O)NCC(=O)N[C@@H](CCC(N)=O)C(=O)NCC(=O)N[C@@H](CO)C(=O)O [Gly-Phe-Gly-Phe-Gly-Phe-Gly-Gln-Gly-Ser] |  | Yes, | Yes, | No | 2 | Concentration at which gel forms, PBS [1]: 2%; Gelation characteristics, qualitative comparison ([1]; compared to the SEQ ID NO: 8 DPA): formed more rapidly and appears to be stronger; Strain at which gel re-crosses the transition point (breakdown) ([2]; formed for 30 minutes): 99 % strain; Strain at which gel re-crosses the transition point (breakdown) ([2]; formed for 30 minutes, listed as Gln-Gly-Ser (SEQ ID NO: 30)): ~100 % strain; Gel point after mixing [3]: instantaneous |
| CCCCCCCCCCCCCCCC(=O)NC(C(=O)NCC(=O)N[C@@H](Cc1ccccc1)C(=O)NCC(=O)N[C@@H](Cc1ccccc1)C(=O)NCC(=O)N[C@@H](Cc1ccccc1)C(=O)NCC(=O)N[C@@H](CC(N)=O)C(=O)NCC(=O)N[C@@H](CO)C(=O)O)C(=O)NCC(=O)N[C@@H](Cc1ccccc1)C(=O)NCC(=O)N[C@@H](Cc1ccccc1)C(=O)NCC(=O)N[C@@H](Cc1ccccc1)C(=O)NCC(=O)N[C@@H](CC(N)=O)C(=O)NCC(=O)N[C@@H](CO)C(=O)O [Gly-Phe-Gly-Phe-Gly-Phe-Gly-Asn-Gly-Ser] |  | Yes, | No | No | 2 |  |
| GFGFGFGQQS-OH [Gly-Phe-Gly-Phe-Gly-Phe-Gly-Gln-Gln-Ser, reference compound] | No | No | No | No |  | Gelation under all conditions tested [1]: did not form any gels |
| CCCCCCCCCCCCCCCC(=O)NC(C(=O)NCC(=O)N[C@@H](Cc1ccccc1)C(=O)NCC(=O)N[C@@H](Cc1ccccc1)C(=O)NCC(=O)N[C@@H](Cc1ccccc1)C(=O)NCC(=O)N[C@@H](CC(N)=O)C(=O)N[C@@H](CC(N)=O)C(=O)N[C@@H](CO)C(=O)O)C(=O)NCC(=O)N[C@@H](Cc1ccccc1)C(=O)NCC(=O)N[C@@H](Cc1ccccc1)C(=O)NCC(=O)N[C@@H](Cc1ccccc1)C(=O)NCC(=O)N[C@@H](CC(N)=O)C(=O)N[C@@H](CC(N)=O)C(=O)N[C@@H](CO)C(=O)O [Gly-Phe-Gly-Phe-Gly-Phe-Gly-Asn-Asn-Ser] |  | Yes, | Yes, | Yes, | 2 | Concentration at which gel forms, PBS [1]: 4%; Concentration at which gel forms, Water ([1]; in water): 2%; Initial strength in strain sweep, comparison [2]: highest initial strength; Strain at which decline in properties starts ([2]; formed for 30 minutes): 15 % strain; Strain at which gel re-crosses the transition point (breakdown) ([2]; formed for 30 minutes): 42 % strain; Strain at which gel re-crosses the transition point (breakdown) ([2]; formed for 30 minutes, listed as Asn-Asn-Ser (SEQ ID NO: 29)): 40 % strain; Gel point after mixing [3]: instantaneous; Rheological properties in kinetics of formation experiment, comparison ([3]; polar, non-charged solubility enhancing regions compared): highest rheological properties |

More lines, main results first:

| Gelation (self-supporting gel on inversion), Calcium added [1] | Gelation (self-supporting gel on inversion), DMEM [1] | Gelation (self-supporting gel on inversion), PBS [1] | Gelation (self-supporting gel on inversion), Water ([1]; in water) | Concentration at which gel forms, DMEM [1] [%] | Compound | other results |
| --- | --- | --- | --- | --- | --- | --- |
| does form gels and Yes | does not gel and No | does not gel and No | does not gel and No |  | CCCCCCCCCCCCCCCC(=O)NC(C(=O)NCC(=O)N[C@@H](Cc1ccc(O)cc1)C(=O)NCC(=O)N[C@@H](Cc1ccc(O)cc1)C(=O)NCC(=O)N[C@@H](Cc1ccc(O)cc1)C(=O)NCC(=O)N[C@@H](CCC(N)=O)C(=O)N[C@@H](CCC(N)=O)C(=O)N[C@@H](CO)C(=O)O)C(=O)NCC(=O)N[C@@H](Cc1ccc(O)cc1)C(=O)NCC(=O)N[C@@H](Cc1ccc(O)cc1)C(=O)NCC(=O)N[C@@H](Cc1ccc(O)cc1)C(=O)NCC(=O)N[C@@H](CCC(N)=O)C(=O)N[C@@H](CCC(N)=O)C(=O)N[C@@H](CO)C(=O)O [Gly-Tyr-Gly-Tyr-Gly-Tyr-Gly-Gln-Gln-Ser] | Concentration at which gel forms, Calcium added [1]: 2% |
| Yes, | No | No | No |  | CCCCCCCCCCCCCCCC(=O)NCC(=O)N[C@@H](Cc1ccccc1)C(=O)NCC(=O)N[C@@H](Cc1ccccc1)C(=O)NCC(=O)N[C@@H](Cc1ccccc1)C(=O)NCC(=O)N[C@@H](CCC(N)=O)C(=O)N[C@@H](CCC(N)=O)C(=O)N[C@@H](CO)C(=O)O [reference compound] (Palmitoyl-GFGFGFGQQS-OH) | Gelation (self-supporting gel on inversion), Calcium added [1, 4]: could be gelled; Concentration at which gel forms, Calcium added [1]: 2%; Gelation (self-supporting gel on inversion), DMEM [1, 4]: did not form gels; Gelation (self-supporting gel on inversion), PBS [1, 4]: did not form gels; Gelation (self-supporting gel on inversion), Water ([1]; in water, listed as linear peptide amphiphile analogue): did not form gels |
| No | No | No | No |  | CCCCCCCCCCCCCCCC(=O)NC(C(=O)NCC(=O)N[C@@H](Cc1c[nH]c2ccccc12)C(=O)NCC(=O)N[C@@H](Cc1c[nH]c2ccccc12)C(=O)NCC(=O)N[C@@H](Cc1c[nH]c2ccccc12)C(=O)NCC(=O)N[C@@H](CCC(N)=O)C(=O)N[C@@H](CCC(N)=O)C(=O)N[C@@H](CO)C(=O)O)C(=O)NCC(=O)N[C@@H](Cc1c[nH]c2ccccc12)C(=O)NCC(=O)N[C@@H](Cc1c[nH]c2ccccc12)C(=O)NCC(=O)N[C@@H](Cc1c[nH]c2ccccc12)C(=O)NCC(=O)N[C@@H](CCC(N)=O)C(=O)N[C@@H](CCC(N)=O)C(=O)N[C@@H](CO)C(=O)O [Gly-Trp-Gly-Trp-Gly-Trp-Gly-Gln-Gln-Ser] | Gelation under all conditions tested [1]: no gelation was observed |
|  | Yes, | No | No | 2 | CCCCCCCCCCCCCCCC(=O)NC(C(=O)NCC(=O)N[C@@H](Cc1ccccc1)C(=O)NCC(=O)N[C@@H](Cc1ccccc1)C(=O)NCC(=O)N[C@@H](Cc1ccccc1)C(=O)NCC(=O)NCC(=O)N[C@@H](CCC(N)=O)C(=O)N[C@@H](CO)C(=O)O)C(=O)NCC(=O)N[C@@H](Cc1ccccc1)C(=O)NCC(=O)N[C@@H](Cc1ccccc1)C(=O)NCC(=O)N[C@@H](Cc1ccccc1)C(=O)NCC(=O)NCC(=O)N[C@@H](CCC(N)=O)C(=O)N[C@@H](CO)C(=O)O [Gly-Phe-Gly-Phe-Gly-Phe-Gly-Gly-Gln-Ser] |  |
